Read-outs that look alike come from different tables or passages of the source.

Broadly, the IC50 is the concentration that gives 50% inhibition. For orientation: EC50 means the concentration needed to bring the measured effect to its halfway point.

Series [1] concerns the target T1, TbNMT (Trypanosoma brucei brucei, UniProt Q388H8).
T1 sequence (Q388H8 1-446): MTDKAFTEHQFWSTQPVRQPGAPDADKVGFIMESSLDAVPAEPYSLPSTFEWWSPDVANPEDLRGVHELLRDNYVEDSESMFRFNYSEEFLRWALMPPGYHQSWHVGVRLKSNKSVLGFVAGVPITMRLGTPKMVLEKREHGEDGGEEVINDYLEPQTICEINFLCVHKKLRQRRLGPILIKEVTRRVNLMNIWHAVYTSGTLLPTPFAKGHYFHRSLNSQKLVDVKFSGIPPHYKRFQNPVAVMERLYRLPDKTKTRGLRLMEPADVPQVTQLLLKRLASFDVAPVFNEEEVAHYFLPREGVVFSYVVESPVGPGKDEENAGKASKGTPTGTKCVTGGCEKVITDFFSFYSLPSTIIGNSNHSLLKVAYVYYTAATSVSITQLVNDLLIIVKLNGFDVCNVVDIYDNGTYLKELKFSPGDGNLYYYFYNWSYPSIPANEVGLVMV
As to the kind of experiment: biochemical. The series is classed as biochemical. To be noted: for LE TbNMT (ligand efficiency): calculated as 0.6 ln(IC50)/(heavy atom count); for IC50: mean of two or more determinations.
Method: (§1) Parasite and NMT assays: These were carried out as described previously.[8–10]

Series [2] relates to T. brucei. As to the kind of experiment: T. brucei parasite growth assay. The series is classed as cell-based, Trypanosoma brucei. The following applies: for EC50: Trypanosoma brucei, mean of two or more determinations; for Selectivity ratio: hNMT IC50/T. brucei cell assay EC50.
Method: as §1
For series [3], the target named is T2, hNMT (Homo sapiens, UniProt P30419).
T2 sequence (P30419 1-496): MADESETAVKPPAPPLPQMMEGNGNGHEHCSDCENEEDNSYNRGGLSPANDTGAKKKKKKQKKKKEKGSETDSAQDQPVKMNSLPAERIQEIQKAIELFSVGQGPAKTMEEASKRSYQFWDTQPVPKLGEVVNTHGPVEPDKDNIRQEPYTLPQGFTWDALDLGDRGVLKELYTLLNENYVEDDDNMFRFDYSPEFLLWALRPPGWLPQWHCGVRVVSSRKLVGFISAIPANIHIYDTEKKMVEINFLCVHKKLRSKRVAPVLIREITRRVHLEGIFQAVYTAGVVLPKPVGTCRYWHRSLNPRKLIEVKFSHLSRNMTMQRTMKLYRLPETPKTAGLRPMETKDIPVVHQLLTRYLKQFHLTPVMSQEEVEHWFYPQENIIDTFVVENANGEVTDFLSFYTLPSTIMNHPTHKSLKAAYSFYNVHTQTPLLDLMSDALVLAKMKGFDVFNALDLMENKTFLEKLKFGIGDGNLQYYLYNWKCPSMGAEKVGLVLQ
Briefly: human NMT enzyme inhibition assay. The series is classed as biochemical. The following applies: mean of two or more determinations.
Method: as §1

Series [4] has as its system hMRC5. As to the kind of experiment: MRC5 cell assay. The class given is cell-based. The following applies: Homo sapiens, mean of two or more determinations.
A short description of series [5]: In vitro intrinsic clearance assay (CLint (m)). The class given is in vitro ADME. The following applies: female CD1 mouse liver microsomes, 0.5 μM compound. How it is done: […]; 0.5 mg (mL 50 mM potassium phosphate buffer)^−1, pH 7.4), and the reaction was started by the addition of excess NADPH (8 mg (mL 50 mM potassium phosphate buffer)^−1, pH 7.4). Immediately, at time zero, then at 3, 6, 9, 15 and 30 min, an aliquot (50 μL) of the incubation mixture was removed and mixed with acetonitrile (100 μL) to stop the reaction. Internal standard was added to all samples, the samples were centrifuged (10 min, 5 °C, 3270 g) to sediment precipitated protein and the plates then sealed prior to UPLC–MS/MS analysis using a Quattro Premier XE (Waters Corp., USA).
XLfit (IDBS, UK) was used to calculate the exponential decay and consequently the rate constant (k) from the ratio of peak area of test compound to internal standard at each time point. The rate of intrinsic clearance (CLint: [mL min^−1 (g liver)^−1]) of each test compound was then calculated using Equation (1), in which V [mL (mg protein)^−1] is the incubation volume per mg protein added, and microsomal protein yield is taken as 52.5 mg protein per gram of liver. Verapamil (0.5 μM) was used as a positive control to confirm acceptable assay performance.
A general note: Liver microsomes are a subcellular fraction often used to study metabolism.

Series [6] can be described thus: In vitro plasma protein binding, equilibrium dialysis. The series is classed as in vitro ADME. To be noted: female CD1 mouse plasma, equilibrium dialysis 5 h; read-out: PPB (converted). How it is done:
In vitro plasma protein binding experiments: In brief, a 96-well equilibrium dialysis apparatus was used to determine the free fraction in plasma for each compound (HT Dialysis LLC, Gales Ferry, CT, USA). Membranes (12-14 kDa cutoff) were conditioned in deionised water for 60 min, followed by conditioning in 80:20 deionised water/EtOH for 20 min, and then rinsed in isotonic buffer before use. Female CD1 mouse plasma was removed from the freezer and allowed to thaw on the day of experiment. Thawed plasma was then centrifuged (Allegra […], Beckman Coulter, USA, 10 min, 5 °C, 3270 g), spiked with test compound (10 μg g^-1), and 150 μL aliquots (n=6 replicate determinations) loaded into the 96-well equilibrium dialysis plate. Dialysis versus isotonic buffer (150 μL) was carried out for 5 h in a temperature-controlled incubator at ∼37 °C (Barworld Scientific Ltd., UK) using an orbital microplate shaker at 125 rpm (Barworld Scientific). At the end of the incubation period, aliquots of plasma or buffer were transferred to micronic tubes (Micronic B.V., the Netherlands), and the composition in each tube was balanced with control fluid such that the volume of buffer to plasma was the same. […] All samples were analysed by UPLC-MS/MS on a Quattro Premier XE Mass Spectrometer (Waters Corp., USA). The unbound fraction was determined as the ratio of the peak area in buffer to that in plasma.

The subject of series [7] is hMRC5. Also noted: method as in PMID 20360736. The following applies: previously published inhibitor; cited from earlier work.

Consider `COc1cc(C2SCC(=O)N2Cc2ccccc2)ccc1O` (stereo not shown) [Compound 1, 3-Benzyl-2-(4-hydroxy-3-methoxyphenyl)thiazolidin-4-one], for which, in series [1], the “LE TbNMT (ligand efficiency)” value was 0.29. Further, the IC50 in series [1] (read-out: IC50 TbNMT) was 22 µM; in series [3], 28 µM. The EC50 in series [2] and in series [4] was above 50 µM each time.
With `O=C1CSC(c2ccccc2)N1Cc1ccccn1` (stereo not shown) [Compound 12, 2-Phenyl-3-(pyridin-2-ylmethyl)thiazolidin-4-one], the “LE TbNMT (ligand efficiency)” value in series [1] was 0.39. The results for the IC50 in series [1] (read-out: IC50 TbNMT) and in series [3] were 5.9 µM and above 100 µM, respectively. In addition, the EC50 in series [2] was above 50 µM.
Consider `COc1cc(C2SCC(=O)N2Cc2ccccn2)ccc1O` (stereo not shown) [Compound 13, 2-(4-Hydroxy-3-methoxyphenyl)-3-(pyridin-2-ylmethyl)thiazolidin-4-one], for which the IC50 was 0.27 µM in series [1] (IC50 TbNMT) and above 100 µM in series [3]. Also, in series [1], the “LE TbNMT (ligand efficiency)” value is listed as 0.42. Further, the “improvement in potency at TbNMT” value in series [1] (relative to parent/starting compound) is 20 fold. For the same compound, in series [2], the midpoint of the response, the EC50, lay at 14 µM.
For the compound `CCOC(=O)CN1C(=O)COc2ccccc21` [Compound 14, Ethyl 2-(3-oxo-2H-benzo[b][1,4]oxazin-4(3H)-yl)acetate], the IC50 in series [1] (IC50 TbNMT) is 12 µM; in series [3], above 100 µM. For the same compound, the “LE TbNMT (ligand efficiency)” value in series [1] is given as 0.42. Also, the EC50 in series [2] and in series [4] was above 50 µM each time.
On to `Cc1cc(CN2C(=O)COc3c(CCCCC4CCNCC4)cccc32)no1` [Compound 39, 4-((5-Methylisoxazol-3-yl)methyl)-8-(4-(piperidin-4-yl)butyl)-2H-benzo[b][1,4]oxazin-3(4H)-one], for which the “CLint (m)” value in series [5] is recorded as 2.0 mL min^−1 (g liver)^−1. The figures for the EC50 in series [2] and in series [4] were 0.41 µM and above 50 µM, respectively.
`Cc1cc(CN2C(=O)COc3c(CCCCN4CCCN(C)CC4)cccc32)no1` [Compound 40, 4-(4-(4-((5-Methylisoxazol-3-yl)methyl)-3-oxo-3,4-dihydro-2H-benzo[b][1,4]oxazin-8-yl)butyl)homopiperazine-1-methyl]: the “LE TbNMT (ligand efficiency)” value in series [1] is above 0.38. Also, the figures for the IC50 in series [1] (read-out: IC50 TbNMT) and in series [3] were below 0.002 µM and 1 µM, respectively. The EC50 in series [2] came to 0.08 µM; in series [4], 24 µM. Moreover, the Selectivity ratio in series [2] is recorded as 13.
With `Cc1cc(CN2C(=O)COc3c(CCCCC4CCN(C)CC4)cccc32)no1` [Compound 41, 4-((5-Methylisoxazol-3-yl)methyl)-8-(4-(1-methylpiperidin-4-yl)butyl)-2H-benzo[b][1,4]oxazin-3(4H)-one], the fraction unbound at 5 h, 10 μg g^−1 in series [6] is 0.18. In addition, in series [5], the “CLint (m)” value was 10 mL min^−1 (g liver)^−1. Moreover, the EC50 turned out to be 0.19 µM in series [2] and 19 µM in series [4].
As for `Cc1cc(CN2C(=O)COc3cc(CCCOC[C@@H]4CCN(C)C4)ccc32)no1` [Compound 42, (R)-4-((5-Methylisoxazol-3-yl)methyl)-7-(3-((1-methylpyrrolidin-3-yl)methoxy)propyl)-2H-benzo[b][1,4]oxazin-3(4H)-one], the “LE TbNMT (ligand efficiency)” value in series [1] is given as 0.38. The half-inhibitory concentration (IC50) in series [1] (read-out: IC50 TbNMT) is 0.009 µM; in series [3], 24 µM. Further, the “CLint (m)” value in series [5] is listed as 7.0 mL min^−1 (g liver)^−1. In addition, the EC50 in series [2] was 0.35 µM; in series [4] it was above 50 µM. Also, the Selectivity ratio in series [2] was 69.
Take `Cc1cc(CN2C(=O)COc3cc(CCCOC4CCNCC4)ccc32)no1` [Compound 43, 4-((5-Methylisoxazol-3-yl)methyl)-7-(3-(piperidin-4-yloxy)propyl)-2H-benzo[b][1,4]oxazin-3(4H)-one]: the EC50 in series [2] was determined as 0.15 µM; in series [4] it was 22 µM.
On to `Cc1cc(CN2C(=O)COc3cc(CCCCC4CCN(C)CC4)ccc32)no1` [Compound 44, 4-((5-Methylisoxazol-3-yl)methyl)-7-(4-(1-methylpiperidin-4-yl)butyl)-2H-benzo[b][1,4]oxazin-3(4H)-one], for which the fraction unbound at 5 h, 10 μg g^−1 in series [6] is 0.06. Further, the “CLint (m)” value in series [5] is 12 mL min^−1 (g liver)^−1. Besides, the concentration giving a half-maximal response (EC50) in series [2] came out at 0.007 µM; in series [4], 10 µM.
In the case of `Cc1nn(C)c(C)c1NS(=O)(=O)c1c(Cl)cc(-c2ccnc(N3CCNCC3)c2)cc1Cl` [DDD85646], the concentration giving a half-maximal response (EC50) in series [7] was 0.4 µM.

(Values after publication PMC4648043, “Development of Small-Molecule Trypanosoma brucei N-Myristoyltransferase Inhibitors: Discovery and Optimisation of a Novel Binding Mode” (Chemmedchem, 2015).)
